Measurements taken from publication PMC7026418, “The kinase polypharmacology landscape of clinical PARP inhibitors” (Scientific Reports, 2020).
Read-outs that look alike come from different tables or passages of the source.

Assays:
Assay in all cases: biochemical
Design in all cases: DiscoveRx KINOMEscan active site-directed competition binding; percent of control kinase bound to immobilised ligand
[1] = target: T1, ABL1(Q252H)-nonphosphorylated (Homo sapiens, UniProt P00519, Q252H)
T1 construct: nonphosphorylated

MARK4 = target: T2, MARK4 (Homo sapiens, UniProt Q96L34)
T2 sequence (Q96L34 1-752): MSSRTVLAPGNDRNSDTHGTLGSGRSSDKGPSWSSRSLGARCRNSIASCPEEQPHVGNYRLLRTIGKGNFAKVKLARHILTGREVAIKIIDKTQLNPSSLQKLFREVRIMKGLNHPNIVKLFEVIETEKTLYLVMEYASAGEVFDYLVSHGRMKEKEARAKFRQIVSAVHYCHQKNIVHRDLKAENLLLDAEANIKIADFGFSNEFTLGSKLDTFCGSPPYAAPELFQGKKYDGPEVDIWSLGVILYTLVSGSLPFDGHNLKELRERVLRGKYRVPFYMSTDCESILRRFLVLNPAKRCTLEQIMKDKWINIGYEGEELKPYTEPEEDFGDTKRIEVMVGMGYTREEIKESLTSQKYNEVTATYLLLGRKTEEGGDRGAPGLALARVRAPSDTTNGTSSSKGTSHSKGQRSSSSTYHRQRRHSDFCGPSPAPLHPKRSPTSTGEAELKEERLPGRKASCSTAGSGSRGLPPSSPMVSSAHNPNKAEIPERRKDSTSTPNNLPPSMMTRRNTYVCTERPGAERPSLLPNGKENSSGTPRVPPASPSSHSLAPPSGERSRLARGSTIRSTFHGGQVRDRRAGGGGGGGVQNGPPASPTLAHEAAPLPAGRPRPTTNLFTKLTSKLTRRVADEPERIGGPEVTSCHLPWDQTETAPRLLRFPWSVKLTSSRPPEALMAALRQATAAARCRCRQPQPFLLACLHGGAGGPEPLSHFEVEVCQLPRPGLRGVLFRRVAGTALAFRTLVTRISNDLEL

NEK6 = NEK6 (Homo sapiens, UniProt Q9HC98)
NEK6, sequence (Q9HC98 whole entry): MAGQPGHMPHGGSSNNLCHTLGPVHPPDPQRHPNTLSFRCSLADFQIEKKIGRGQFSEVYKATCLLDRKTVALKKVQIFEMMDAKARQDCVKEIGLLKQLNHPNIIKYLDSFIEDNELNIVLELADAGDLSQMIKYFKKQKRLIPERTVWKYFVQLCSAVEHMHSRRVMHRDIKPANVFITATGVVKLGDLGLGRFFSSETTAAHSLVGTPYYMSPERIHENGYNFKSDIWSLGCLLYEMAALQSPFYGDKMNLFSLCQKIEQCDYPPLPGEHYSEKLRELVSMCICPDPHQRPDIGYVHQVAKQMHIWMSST

PRKCQ = PRKCQ (Homo sapiens, UniProt Q04759)
PRKCQ, sequence (Q04759 whole entry): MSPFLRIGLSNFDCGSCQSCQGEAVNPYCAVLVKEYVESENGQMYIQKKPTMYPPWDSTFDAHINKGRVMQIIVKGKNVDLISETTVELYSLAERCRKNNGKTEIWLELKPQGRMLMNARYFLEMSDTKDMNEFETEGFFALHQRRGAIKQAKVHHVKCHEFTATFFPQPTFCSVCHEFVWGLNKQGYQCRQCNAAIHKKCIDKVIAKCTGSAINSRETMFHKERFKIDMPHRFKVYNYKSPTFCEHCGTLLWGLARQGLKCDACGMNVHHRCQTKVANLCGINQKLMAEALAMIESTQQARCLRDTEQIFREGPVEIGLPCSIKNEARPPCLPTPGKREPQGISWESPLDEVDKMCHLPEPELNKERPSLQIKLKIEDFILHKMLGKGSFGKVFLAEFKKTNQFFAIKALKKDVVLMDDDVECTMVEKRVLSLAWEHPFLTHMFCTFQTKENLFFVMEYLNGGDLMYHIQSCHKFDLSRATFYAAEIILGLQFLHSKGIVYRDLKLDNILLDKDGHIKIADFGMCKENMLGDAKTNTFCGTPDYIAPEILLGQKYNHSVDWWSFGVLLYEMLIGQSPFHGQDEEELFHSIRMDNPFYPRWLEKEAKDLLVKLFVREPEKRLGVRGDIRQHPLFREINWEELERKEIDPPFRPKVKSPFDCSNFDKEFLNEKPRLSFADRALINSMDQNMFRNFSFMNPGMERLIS

RET(V804M) = RET(V804M) (Homo sapiens, UniProt P07949, V804M)
RET(V804M), sequence (P07949 whole entry V804M): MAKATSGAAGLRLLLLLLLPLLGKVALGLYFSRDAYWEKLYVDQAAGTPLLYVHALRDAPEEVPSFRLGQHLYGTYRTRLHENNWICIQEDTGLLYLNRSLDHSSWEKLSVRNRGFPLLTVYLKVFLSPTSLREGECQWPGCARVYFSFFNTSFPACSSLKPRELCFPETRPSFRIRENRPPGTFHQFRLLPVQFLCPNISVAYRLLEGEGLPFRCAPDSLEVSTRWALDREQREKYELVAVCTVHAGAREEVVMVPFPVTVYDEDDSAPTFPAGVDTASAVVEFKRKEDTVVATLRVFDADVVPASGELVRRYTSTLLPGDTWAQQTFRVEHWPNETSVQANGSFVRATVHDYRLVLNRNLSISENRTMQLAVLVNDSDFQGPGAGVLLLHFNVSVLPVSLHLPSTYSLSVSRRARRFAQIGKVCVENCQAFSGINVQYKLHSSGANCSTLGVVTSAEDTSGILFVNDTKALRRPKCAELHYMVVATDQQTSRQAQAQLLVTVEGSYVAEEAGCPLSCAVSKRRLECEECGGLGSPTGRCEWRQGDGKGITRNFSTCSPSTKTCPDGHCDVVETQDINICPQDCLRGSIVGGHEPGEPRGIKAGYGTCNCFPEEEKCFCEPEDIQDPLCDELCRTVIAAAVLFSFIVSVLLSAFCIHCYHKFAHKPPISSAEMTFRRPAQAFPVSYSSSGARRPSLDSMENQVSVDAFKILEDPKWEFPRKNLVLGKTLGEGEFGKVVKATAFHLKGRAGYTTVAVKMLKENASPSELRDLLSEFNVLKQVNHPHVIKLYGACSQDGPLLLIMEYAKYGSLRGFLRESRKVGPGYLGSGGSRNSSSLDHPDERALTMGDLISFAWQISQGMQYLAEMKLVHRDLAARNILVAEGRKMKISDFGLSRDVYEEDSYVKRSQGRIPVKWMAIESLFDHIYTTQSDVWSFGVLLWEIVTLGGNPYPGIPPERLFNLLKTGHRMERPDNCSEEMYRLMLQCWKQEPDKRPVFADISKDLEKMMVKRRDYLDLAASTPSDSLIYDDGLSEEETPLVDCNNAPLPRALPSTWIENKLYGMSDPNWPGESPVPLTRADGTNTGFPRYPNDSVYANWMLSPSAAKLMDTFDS

BRSK1 = target: T3, BRSK1 (Homo sapiens, UniProt Q8TDC3)
T3 sequence (Q8TDC3 1-778): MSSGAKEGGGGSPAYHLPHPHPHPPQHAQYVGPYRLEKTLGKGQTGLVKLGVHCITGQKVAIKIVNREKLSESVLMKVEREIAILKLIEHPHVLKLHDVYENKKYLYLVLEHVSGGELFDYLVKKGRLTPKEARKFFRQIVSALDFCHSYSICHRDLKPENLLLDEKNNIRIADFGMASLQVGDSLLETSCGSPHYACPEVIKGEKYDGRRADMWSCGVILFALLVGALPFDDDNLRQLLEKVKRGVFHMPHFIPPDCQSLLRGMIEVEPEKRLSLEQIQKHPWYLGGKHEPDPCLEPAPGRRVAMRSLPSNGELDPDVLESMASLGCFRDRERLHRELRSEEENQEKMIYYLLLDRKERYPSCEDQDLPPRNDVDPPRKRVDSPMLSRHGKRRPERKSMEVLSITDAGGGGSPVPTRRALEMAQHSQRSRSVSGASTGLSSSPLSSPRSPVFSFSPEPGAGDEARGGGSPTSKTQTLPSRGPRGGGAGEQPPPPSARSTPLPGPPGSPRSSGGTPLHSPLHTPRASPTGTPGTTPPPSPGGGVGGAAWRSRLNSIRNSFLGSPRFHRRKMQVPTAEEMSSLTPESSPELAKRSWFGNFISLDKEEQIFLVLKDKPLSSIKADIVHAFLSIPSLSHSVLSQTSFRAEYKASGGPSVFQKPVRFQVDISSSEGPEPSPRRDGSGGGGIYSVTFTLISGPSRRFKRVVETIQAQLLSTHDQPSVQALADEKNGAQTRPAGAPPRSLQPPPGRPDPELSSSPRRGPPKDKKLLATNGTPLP

DCAMKL2 = target: T4, DCAMKL2 (Homo sapiens, UniProt Q8N568)
T4 construct: gene DCLK2
T4 sequence (Q8N568 1-766): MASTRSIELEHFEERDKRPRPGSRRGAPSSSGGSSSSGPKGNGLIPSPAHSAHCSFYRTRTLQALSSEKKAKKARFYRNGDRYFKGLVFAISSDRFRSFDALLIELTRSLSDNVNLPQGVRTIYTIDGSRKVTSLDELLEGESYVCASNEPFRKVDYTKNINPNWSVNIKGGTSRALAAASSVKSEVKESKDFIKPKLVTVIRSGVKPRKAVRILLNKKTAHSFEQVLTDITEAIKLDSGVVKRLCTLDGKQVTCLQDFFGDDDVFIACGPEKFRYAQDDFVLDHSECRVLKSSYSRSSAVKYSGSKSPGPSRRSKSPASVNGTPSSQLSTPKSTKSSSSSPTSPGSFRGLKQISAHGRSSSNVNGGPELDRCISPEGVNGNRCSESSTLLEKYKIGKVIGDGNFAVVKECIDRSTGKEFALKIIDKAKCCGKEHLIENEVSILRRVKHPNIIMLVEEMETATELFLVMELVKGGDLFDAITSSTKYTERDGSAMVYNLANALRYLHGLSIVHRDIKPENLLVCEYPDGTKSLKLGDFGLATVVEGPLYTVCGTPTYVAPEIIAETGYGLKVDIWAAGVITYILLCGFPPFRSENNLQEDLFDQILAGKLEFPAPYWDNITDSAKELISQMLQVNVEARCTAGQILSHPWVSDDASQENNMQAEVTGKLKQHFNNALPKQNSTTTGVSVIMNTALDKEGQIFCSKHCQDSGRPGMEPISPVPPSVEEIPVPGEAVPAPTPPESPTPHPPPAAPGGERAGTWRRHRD

[2] = read-out: Talazoparib (BMN 673) / %Ctrl @ 10000nM
[3] = read-out: Olaparib / %Ctrl @ 10000nM
[4] = read-out: Niraparib (MK-4827) / %Ctrl @ 10000nM
[5] = read-out: Rucaparib / %Ctrl @ 10000nM, binding competition, % of control

## Cn1ncnc1[C@H]1c2n[nH]c(=O)c3cc(F)cc(c23)N[C@@H]1c1ccc(F)cc1 [Talazoparib]
[1]; [2]
  percent of control binding at 10 µM: 73%
MARK4; [2]
  percent of control binding at 10 µM: 100%
NEK6; [2]
  percent of control binding at 10 µM: 99%
PRKCQ; [2]
  percent of control binding at 10 µM: 89%
RET(V804M); [2]
  percent of control binding at 10 µM: 97%
BRSK1; [2]
  percent of control binding at 10 µM: 100%
DCAMKL2; [2]
  percent of control binding at 10 µM: 100%

## O=C(c1cc(Cc2n[nH]c(=O)c3ccccc23)ccc1F)N1CCN(C(=O)C2CC2)CC1 [Olaparib]
[1]; [3]
  percent of control binding at 10 µM: 98%
MARK4; [3]
  percent of control binding at 10 µM: 88%
NEK6; [3]
  percent of control binding at 10 µM: 96%
PRKCQ; [3]
  percent of control binding at 10 µM: 95%
RET(V804M); [3]
  percent of control binding at 10 µM: 90%
BRSK1; [3]
  percent of control binding at 10 µM: 91%
DCAMKL2; [3]
  percent of control binding at 10 µM: 100%

## NC(=O)c1cccc2cn(-c3ccc([C@@H]4CCCNC4)cc3)nc12 [Niraparib]
[1]; [4]
  percent of control binding at 10 µM: 58%
MARK4; [4]
  percent of control binding at 10 µM: 98%
NEK6; [4]
  percent of control binding at 10 µM: 100%
PRKCQ; [4]
  percent of control binding at 10 µM: 73%
RET(V804M); [4]
  percent of control binding at 10 µM: 79%
BRSK1; [4]
  percent of control binding at 10 µM: 92%
DCAMKL2; [4]
  percent of control binding at 10 µM: 83%

## CNCc1ccc(-c2[nH]c3cc(F)cc4c3c2CCNC4=O)cc1 [Rucaparib]
[1]; [5]
  percent of control binding at 10 µM: 62%
MARK4; [5]
  percent of control binding at 10 µM: 86%
NEK6; [5]
  percent of control binding at 10 µM: 89%
PRKCQ; [5]
  percent of control binding at 10 µM: 93%
RET(V804M); [5]
  percent of control binding at 10 µM: 99%
BRSK1; [5]
  percent of control binding at 10 µM: 74%
DCAMKL2; [5]
  percent of control binding at 10 µM: 87%
